The values that follow come from patent publication US20220264913A1, “MULTIFUNCTIONAL EXTRACTS OF SUGARCANE STRAW OR BAGASSE AND USES THEREOF” (UNIVERSIDADE CATÓLICA PORTUGUESA - UCP, priority 2019, published 2022).

Format in all cases: cell-based
What all share (conditions): extracts 50% ethanol, ND = inhibition not detected

Assay [1] concerns E. coli. As to the kind of experiment: MIC/MBC determination, E. coli. On the procedure:
(§1) The antimicrobial activity of the extracts was evaluated by measuring the minimum inhibitory concentration (MIC) and the minimum bactericidal concentration (MBC) of the extracts using the methods of the clinical and laboratory standards institute for aerobic (M07-A9) and anaerobic bacteria (M11-A8). From a previously filtered 3% stock solution a series of extract dilutions were prepared (2%, 1.5%, 1%, 0.75%, 0.5%, 0.25%, 0.125%, and 0.0625% (w/v)). A commonly used preservative, 2-phenoxyethanol was tested under the same conditions as a positive control.
(§2) MHB growth media was used for aerobic microorganisms and Wilkins Chalgren Broth (WCB) was used for anaerobic microorganisms. The microorganisms were inoculated at 2% (v/v) from an inoculum with 0.5 McFarland standard (ca. 10^8 CFU/mL) and then adjusted in order to obtain a final inoculum of 10^5 CFU/mL in the testing solutions. […] The OD of each well (experimental and control) was measured each hour at 660 nm. […] Afterwards, the concentrations for which no growth was detected were plated in MHA and Wilkins Chalgren Agar (WCA) accordingly, in order to verify the MBC. MBC and MIC were determined by the analysis of maximum absorbance registered, delay of the exponential phase entry, and the calculation of the specific growth rate. […]

Assay [2] has as its system P. aeruginosa. As to the kind of experiment: MIC/MBC determination, P. aeruginosa. On the procedure:
as §1, §2

For assay [3], the system named is MSSA. The assay is described as follows: MIC/MBC determination, MSSA. How it is done:
as §1, §2

For assay [4], the system named is C. albicans. The assay is described as follows: MIC/MBC determination, C. albicans. How it is done: as §1, §2

`OCCOc1ccccc1` [Phenoxyethanol, 2-phenoxyethanol]: the MBC in assay [1] is given as 3%; in assay [2], 0.3%; in assay [3], 0.3%; in assay [4], 3%.
